Assay results reported in the supplement of paper PMC4932681.

Tests used:
BT-474 Tam1 [1] = assay: drug sensitivity score (DSS) (DSS (dimensionless)); higher = more sensitive; extreme values may be limits of the assay; details: 4-OH-tamoxifen in medium 1 µM; 72 h
Outline: (§1)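 After seeding into 384-well plates with library drugs at five concentrations spanning a 10 000-fold range, breast cancer cell lines and their resistant derivatives were incubated 72 h at 37 °C. Resistant lines received medium with 1 μM of the selecting drug. CellTiter-Glo signal was read on a PHERAstar and scaled to vehicle-only and positive controls. Drug sensitivity score, relative IC50 (the curve midpoint) and top-dose inhibition came from logistic fits run in the Breeze pipeline.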

BT-474 Tam2 [2] = assay: as above; details: 4-OH-tamoxifen in medium 1 µM; 72 h
Outline: as §1

BT-474 [3] = assay: as above; details: 72 h
Outline: as §1

MCF-7 Tam1 = assay: as above; details: 4-OH-tamoxifen in medium 1 µM; 72 h
Outline: as §1

MCF-7 [4] = assay: as above; details: 72 h
Outline: as §1

T-47D Tam1 [5] = assay: as above; details: 4-OH-tamoxifen in medium 1 µM; 72 h
Outline: as §1

T-47D Tam2 [6] = assay: as above; details: 4-OH-tamoxifen in medium 1 µM; 72 h
Outline: as §1

T-47D [7] = assay: as above; details: 72 h
Outline: as §1

ZR-75-1 Tam1 [8] = assay: as above; details: 4-OH-tamoxifen in medium 1 µM; 72 h
Outline: as §1

ZR-75-1 Tam2 [9] = assay: as above; details: 4-OH-tamoxifen in medium 1 µM; 72 h
Outline: as §1

ZR-75-1 [10] = assay: as above; details: 72 h
Outline: as §1

BT-474 Tam1 [11] = assay: relative IC50 (midpoint of fitted logistic curve, plateau may be below 50% inhibition; CellTiter-Glo viability); higher = less potent; details: 4-OH-tamoxifen in medium 1 µM; 72 h
Outline: as §1

BT-474 Tam2 [12] = assay: as above; details: 4-OH-tamoxifen in medium 1 µM; 72 h
Outline: as §1

BT-474 [13] = assay: as above; details: 72 h
Outline: as §1

MCF-7 [14] = assay: as above; details: 72 h
Outline: as §1

T-47D Tam1 [15] = assay: as above; details: 4-OH-tamoxifen in medium 1 µM; 72 h
Outline: as §1

T-47D Tam2 [16] = assay: as above; details: 4-OH-tamoxifen in medium 1 µM; 72 h
Outline: as §1

T-47D [17] = assay: as above; details: 72 h
Outline: as §1

ZR-75-1 Tam1 [18] = assay: as above; details: 4-OH-tamoxifen in medium 1 µM; 72 h
Outline: as §1

ZR-75-1 Tam2 [19] = assay: as above; details: 4-OH-tamoxifen in medium 1 µM; 72 h
Outline: as §1

ZR-75-1 [20] = assay: as above; details: 72 h
Outline: as §1

Row | SMILES | relative IC50 (BT-474 Tam1 [11]) | relative IC50 (BT-474 Tam2 [12]) | relative IC50 (BT-474 [13]; 4-OH-tamoxifen in medium 0 µM) | relative IC50 (BT-474 [13]; 4-OH-tamoxifen in medium 1 µM) | relative IC50 (MCF-7 [14]; 4-OH-tamoxifen in medium 0 µM) | relative IC50 (MCF-7 [14]; 4-OH-tamoxifen in medium 1 µM) | relative IC50 (T-47D Tam1 [15]) | relative IC50 (T-47D Tam2 [16]) | relative IC50 (T-47D [17]; 4-OH-tamoxifen in medium 0 µM) | relative IC50 (T-47D [17]; 4-OH-tamoxifen in medium 1 µM) | drug sensitivity score (BT-474 Tam1 [1]) | drug sensitivity score (BT-474 Tam2 [2]) | drug sensitivity score (BT-474 [3]; 4-OH-tamoxifen in medium 0 µM) | drug sensitivity score (BT-474 [3]; 4-OH-tamoxifen in medium 1 µM) | drug sensitivity score (MCF-7 Tam1) | drug sensitivity score (MCF-7 [4]; 4-OH-tamoxifen in medium 0 µM) | drug sensitivity score (MCF-7 [4]; 4-OH-tamoxifen in medium 1 µM) | drug sensitivity score (T-47D Tam1 [5]) | drug sensitivity score (T-47D Tam2 [6]) | drug sensitivity score (T-47D [7]; 4-OH-tamoxifen in medium 0 µM) | drug sensitivity score (T-47D [7]; 4-OH-tamoxifen in medium 1 µM) | drug sensitivity score (ZR-75-1 Tam1 [8]) | drug sensitivity score (ZR-75-1 Tam2 [9]) | drug sensitivity score (ZR-75-1 [10]; 4-OH-tamoxifen in medium 0 µM) | drug sensitivity score (ZR-75-1 [10]; 4-OH-tamoxifen in medium 1 µM) | relative IC50 (ZR-75-1 Tam1 [18]) | relative IC50 (ZR-75-1 Tam2 [19]) | relative IC50 (ZR-75-1 [20]; 4-OH-tamoxifen in medium 0 µM) | relative IC50 (ZR-75-1 [20]; 4-OH-tamoxifen in medium 1 µM)
1 | CN(C)C[C@@H]1CCn2cc(c3ccccc32)C2=C(C(=O)NC2=O)c2cn(c3ccccc23)CCO1 | 1590 nM | 2610 nM | 3260 nM | 1860 nM | 2350 nM | 2940 nM | 1430 nM | 2530 nM | 1540 nM | 2780 nM | 9.22 | 6.47 | 4.1 | 8.42 | 1.31 | 7.13 | 4.11 | 6.85 | 4.71 | 6.79 | 6.1 | 3.13 | 4.71 | 4.14 | 6.47 | 1400 nM | 942 nM | 1320 nM | 1560 nM
2 | COc1cc(Nc2ncc3c(n2)-c2ccc(Cl)cc2C(c2c(F)cccc2OC)=NC3)ccc1C(=O)O [Alisertib (MLN8237)] | – | > 10000 nM | – | 3450 nM | – | – | 1050 nM | 821 nM | – | – | 0.0274 | 0 | 0.464 | 1.48 | 0.522 | 0.284 | 0 | 3.59 | 4.18 | 3.12 | 0.856 | 0 | 0 | 0 | 0 | > 10000 nM | > 10000 nM | > 10000 nM | –
3 | Nc1ccccc1NC(=O)c1ccc(CNc2nccc(-c3cccnc3)n2)cc1 [Mocetotinostat (MGCD0103)] | 2150 nM | 1210 nM | 2060 nM | 1380 nM | 1760 nM | 2000 nM | 688 nM | 1390 nM | 3290 nM | 3220 nM | 7.26 | 8.98 | 5.13 | 9.43 | 0.799 | 6.98 | 4.99 | 6.2 | 3.42 | 4.36 | 4.03 | 2.33 | 2.62 | 1.76 | 1.86 | – | 1480 nM | 2720 nM | –
4 | NC1(c2ccc(-c3nc4ccn5c(=O)[nH]nc5c4cc3-c3ccccc3)cc2)CCC1 [MK-2206] | 170 nM | – | – | 335 nM | 315 nM | 119 nM | 101 nM | 111 nM | 114 nM | 177 nM | 4.04 | 0.553 | 1.68 | 2.54 | 2.56 | 1.67 | 4.73 | 5.11 | 5.54 | 5.76 | 2.9 | 7.57 | 7.96 | 6.86 | 7.22 | 68.5 nM | 78.2 nM | 73.6 nM | 54.6 nM
5 | COc1cc([C@@H]2c3cc4c(cc3[C@@H](O[C@@H]3O[C@@H]5CO[C@@H](c6cccs6)O[C@H]5[C@H](O)[C@H]3O)[C@H]3COC(=O)[C@H]23)OCO4)cc(OC)c1O [Teniposide] | 3450 nM | – | 2130 nM | 2230 nM | 2130 nM | – | 995 nM | 1110 nM | 306 nM | 697 nM | 3.14 | 0.0097 | 4.07 | 6.48 | 0.273 | 4.14 | 2.91 | 8.66 | 4.73 | 9.21 | 4.79 | 3.15 | 5.1 | 4.91 | 3.3 | 1600 nM | 737 nM | 703 nM | 1070 nM
6 | O=C(NC[C@H](O)CO)c1ccncc1Nc1ccc(I)cc1F | – | > 10000 nM | – | 1850 nM | 2770 nM | – | > 10000 nM | 1940 nM | – | > 10000 nM | 0.041 | 0 | 0.702 | 3.92 | 0.0844 | 1.94 | 1.22 | 0 | 2.47 | 0 | 0 | 0 | 0 | 0 | 0 | > 10000 nM | > 10000 nM | > 10000 nM | –

The next lines start with results.

Row | relative IC50 (BT-474 Tam1 [11]) | relative IC50 (BT-474 Tam2 [12]) | relative IC50 (BT-474 [13]; 4-OH-tamoxifen in medium 0 µM) | relative IC50 (BT-474 [13]; 4-OH-tamoxifen in medium 1 µM) | relative IC50 (MCF-7 [14]; 4-OH-tamoxifen in medium 0 µM) | relative IC50 (MCF-7 [14]; 4-OH-tamoxifen in medium 1 µM) | relative IC50 (T-47D Tam1 [15]) | relative IC50 (T-47D Tam2 [16]) | relative IC50 (T-47D [17]; 4-OH-tamoxifen in medium 0 µM) | relative IC50 (T-47D [17]; 4-OH-tamoxifen in medium 1 µM) | SMILES | drug sensitivity score (BT-474 Tam1 [1]) | drug sensitivity score (BT-474 Tam2 [2]) | drug sensitivity score (BT-474 [3]; 4-OH-tamoxifen in medium 0 µM) | drug sensitivity score (BT-474 [3]; 4-OH-tamoxifen in medium 1 µM) | drug sensitivity score (MCF-7 Tam1) | drug sensitivity score (MCF-7 [4]; 4-OH-tamoxifen in medium 0 µM) | drug sensitivity score (MCF-7 [4]; 4-OH-tamoxifen in medium 1 µM) | drug sensitivity score (T-47D Tam1 [5]) | drug sensitivity score (T-47D Tam2 [6]) | drug sensitivity score (T-47D [7]; 4-OH-tamoxifen in medium 0 µM) | drug sensitivity score (T-47D [7]; 4-OH-tamoxifen in medium 1 µM) | drug sensitivity score (ZR-75-1 Tam1 [8]) | drug sensitivity score (ZR-75-1 Tam2 [9]) | drug sensitivity score (ZR-75-1 [10]; 4-OH-tamoxifen in medium 0 µM) | drug sensitivity score (ZR-75-1 [10]; 4-OH-tamoxifen in medium 1 µM) | relative IC50 (ZR-75-1 Tam1 [18]) | relative IC50 (ZR-75-1 Tam2 [19]) | relative IC50 (ZR-75-1 [20]; 4-OH-tamoxifen in medium 0 µM) | relative IC50 (ZR-75-1 [20]; 4-OH-tamoxifen in medium 1 µM)
7 | 35.4 nM | 56.9 nM | 75.3 nM | 49 nM | 110 nM | 409 nM | 175 nM | 284 nM | 346 nM | 359 nM | COc1c(C)cnc(Cn2cnc3c(Cl)nc(N)nc32)c1C [BIIB021] | 22 | 22 | 14.6 | 22.8 | 2.87 | 13.9 | 7.58 | 9.86 | 8.67 | 11.6 | 9.03 | 5.21 | 5.51 | 4.41 | 4.44 | 557 nM | 499 nM | 477 nM | 698 nM
8 | 371 nM | – | > 1000 nM | 90.5 nM | – | – | 138 nM | 93.3 nM | 182 nM | – | CCS(=O)(=O)c1cccc(-c2cc(C(=O)NC3CCN(C)CC3)c(C)c3[nH]c4ncc(C)cc4c23)c1 [TAK-901] | 1.12 | 2.87 | 0 | 3.36 | 0 | 0.354 | 2.84 | 6.67 | 2.96 | 3.25 | 0.53 | 0 | 0 | 0 | 0 | > 1000 nM | > 1000 nM | > 1000 nM | > 1000 nM
